The kinase profiling compilation of Christmann-Franck et al. (2016)

Assays:
Test in all cases: KINOMEscan competition binding
Details in all cases: compound 10.0 µM
[1] = biological target: TYK2 JH2 pseudokinase (human) (UniProt P29597)
RPS6KA6 KD2 (human) = RPS6KA6 KD2 (human) (UniProt Q9UK32)
FGFR4 (human) = FGFR4 (human) (UniProt P22455)
EIF2AK2 (human) = EIF2AK2 (human) (UniProt P19525)
ERN1 (human) = ERN1 (human) (UniProt O75460)
CaMK1 (human) = CaMK1 (human) (UniProt Q14012)
CDC42BPA (human) = CDC42BPA (human) (UniProt Q5VT25)
MAP2K4 (human) = MAP2K4 (human) (UniProt P45985)
PLK1 (human) = PLK1 (human) (UniProt P53350)
MYLK4 (human) = MYLK4 (human) (UniProt Q86YV6)
ERBB2 (human) = ERBB2 (human) (UniProt P04626)
CAMK2B (human) = CAMK2B (human) (UniProt Q13554)
PRKACB (human) = PRKACB (human) (UniProt P22694)
PRKAA2 (human) = PRKAA2 (human) (UniProt P54646)
NEK7 (human) = NEK7 (human) (UniProt Q8TDX7)
NEK7 (human), sequence (Q8TDX7 whole entry, looked up): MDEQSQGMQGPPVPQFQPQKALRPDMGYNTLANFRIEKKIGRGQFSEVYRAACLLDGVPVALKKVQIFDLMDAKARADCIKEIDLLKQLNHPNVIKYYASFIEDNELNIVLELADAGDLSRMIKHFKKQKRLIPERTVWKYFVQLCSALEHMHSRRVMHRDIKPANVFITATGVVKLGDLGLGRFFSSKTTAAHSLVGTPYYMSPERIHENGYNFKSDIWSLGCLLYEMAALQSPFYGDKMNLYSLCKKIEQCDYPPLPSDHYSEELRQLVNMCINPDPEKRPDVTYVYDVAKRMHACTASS

TLK2 (human) = TLK2 (human) (UniProt Q86UE8)
CIT (human) = CIT (human) (UniProt O14578)
[2] = tested on: FLT3 (human), P36888 [K663Q]
RPS6KA4 KD1 (human) = RPS6KA4 KD1 (human) (UniProt O75676)
MAP2K6 (human) = MAP2K6 (human) (UniProt P52564)
STK39 (human) = STK39 (human) (UniProt Q9UEW8)
ACVR1B (human) = ACVR1B (human) (UniProt P36896)
CAMK4 (human) = CAMK4 (human) (UniProt Q16566)
[3] = tested on: PIK3CA (human), P42336 [Q546K]
DAPK1 (human) = DAPK1 (human) (UniProt P53355)
PKN2 (human) = PKN2 (human) (UniProt Q16513)
MST4 (human) = MST4 (human) (UniProt Q9P289)
MST4 (human), sequence (Q9P289 whole entry, looked up): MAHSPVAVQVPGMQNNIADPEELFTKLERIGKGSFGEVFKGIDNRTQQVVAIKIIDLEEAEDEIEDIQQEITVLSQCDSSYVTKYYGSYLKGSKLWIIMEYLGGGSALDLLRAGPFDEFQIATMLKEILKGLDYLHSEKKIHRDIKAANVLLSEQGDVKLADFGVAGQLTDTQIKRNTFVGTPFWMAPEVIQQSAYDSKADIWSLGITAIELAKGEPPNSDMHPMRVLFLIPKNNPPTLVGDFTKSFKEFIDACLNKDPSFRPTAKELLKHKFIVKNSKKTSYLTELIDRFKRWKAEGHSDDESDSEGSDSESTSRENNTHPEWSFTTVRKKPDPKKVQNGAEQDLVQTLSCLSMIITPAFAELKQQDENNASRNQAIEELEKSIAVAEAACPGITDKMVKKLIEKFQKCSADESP

ACVRL1 (human) = ACVRL1 (human) (UniProt P37023)
CSNK1G3 (human) = CSNK1G3 (human) (UniProt Q9Y6M4)
CSNK1G3 (human), sequence (Q9Y6M4 whole entry, looked up): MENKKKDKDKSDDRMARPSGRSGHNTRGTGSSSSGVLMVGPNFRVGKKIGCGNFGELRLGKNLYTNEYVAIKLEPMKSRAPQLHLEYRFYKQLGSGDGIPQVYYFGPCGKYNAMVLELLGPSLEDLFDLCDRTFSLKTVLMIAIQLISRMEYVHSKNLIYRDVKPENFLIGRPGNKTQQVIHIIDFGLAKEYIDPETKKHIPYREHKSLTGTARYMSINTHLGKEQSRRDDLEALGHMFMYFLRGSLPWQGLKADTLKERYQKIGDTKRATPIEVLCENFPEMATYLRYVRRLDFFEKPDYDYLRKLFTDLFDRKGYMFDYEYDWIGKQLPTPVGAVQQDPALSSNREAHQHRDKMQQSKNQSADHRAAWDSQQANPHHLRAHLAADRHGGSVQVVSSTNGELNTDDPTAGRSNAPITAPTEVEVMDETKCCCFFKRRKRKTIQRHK

FGR (human) = FGR (human) (UniProt P09769)
FGR (human), sequence (P09769 whole entry, looked up): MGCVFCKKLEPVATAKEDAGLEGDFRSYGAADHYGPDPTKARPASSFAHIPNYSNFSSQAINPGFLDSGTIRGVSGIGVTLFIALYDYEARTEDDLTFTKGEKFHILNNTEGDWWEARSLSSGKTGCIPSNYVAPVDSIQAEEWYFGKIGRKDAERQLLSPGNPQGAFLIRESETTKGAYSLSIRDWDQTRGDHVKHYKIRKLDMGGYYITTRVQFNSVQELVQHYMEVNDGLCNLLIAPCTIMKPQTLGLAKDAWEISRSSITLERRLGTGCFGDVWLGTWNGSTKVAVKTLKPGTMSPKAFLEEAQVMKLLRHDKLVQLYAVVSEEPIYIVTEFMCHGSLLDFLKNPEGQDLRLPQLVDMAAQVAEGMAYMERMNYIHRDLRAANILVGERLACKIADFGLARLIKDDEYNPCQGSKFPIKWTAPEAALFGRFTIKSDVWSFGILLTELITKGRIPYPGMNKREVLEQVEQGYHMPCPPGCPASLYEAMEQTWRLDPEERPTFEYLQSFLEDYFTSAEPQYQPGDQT

PLK2 (human) = PLK2 (human) (UniProt Q9NYY3)
YSK4 (human) = YSK4 (human) (UniProt Q56UN5)
YSK4 (human), sequence (Q56UN5 whole entry, looked up): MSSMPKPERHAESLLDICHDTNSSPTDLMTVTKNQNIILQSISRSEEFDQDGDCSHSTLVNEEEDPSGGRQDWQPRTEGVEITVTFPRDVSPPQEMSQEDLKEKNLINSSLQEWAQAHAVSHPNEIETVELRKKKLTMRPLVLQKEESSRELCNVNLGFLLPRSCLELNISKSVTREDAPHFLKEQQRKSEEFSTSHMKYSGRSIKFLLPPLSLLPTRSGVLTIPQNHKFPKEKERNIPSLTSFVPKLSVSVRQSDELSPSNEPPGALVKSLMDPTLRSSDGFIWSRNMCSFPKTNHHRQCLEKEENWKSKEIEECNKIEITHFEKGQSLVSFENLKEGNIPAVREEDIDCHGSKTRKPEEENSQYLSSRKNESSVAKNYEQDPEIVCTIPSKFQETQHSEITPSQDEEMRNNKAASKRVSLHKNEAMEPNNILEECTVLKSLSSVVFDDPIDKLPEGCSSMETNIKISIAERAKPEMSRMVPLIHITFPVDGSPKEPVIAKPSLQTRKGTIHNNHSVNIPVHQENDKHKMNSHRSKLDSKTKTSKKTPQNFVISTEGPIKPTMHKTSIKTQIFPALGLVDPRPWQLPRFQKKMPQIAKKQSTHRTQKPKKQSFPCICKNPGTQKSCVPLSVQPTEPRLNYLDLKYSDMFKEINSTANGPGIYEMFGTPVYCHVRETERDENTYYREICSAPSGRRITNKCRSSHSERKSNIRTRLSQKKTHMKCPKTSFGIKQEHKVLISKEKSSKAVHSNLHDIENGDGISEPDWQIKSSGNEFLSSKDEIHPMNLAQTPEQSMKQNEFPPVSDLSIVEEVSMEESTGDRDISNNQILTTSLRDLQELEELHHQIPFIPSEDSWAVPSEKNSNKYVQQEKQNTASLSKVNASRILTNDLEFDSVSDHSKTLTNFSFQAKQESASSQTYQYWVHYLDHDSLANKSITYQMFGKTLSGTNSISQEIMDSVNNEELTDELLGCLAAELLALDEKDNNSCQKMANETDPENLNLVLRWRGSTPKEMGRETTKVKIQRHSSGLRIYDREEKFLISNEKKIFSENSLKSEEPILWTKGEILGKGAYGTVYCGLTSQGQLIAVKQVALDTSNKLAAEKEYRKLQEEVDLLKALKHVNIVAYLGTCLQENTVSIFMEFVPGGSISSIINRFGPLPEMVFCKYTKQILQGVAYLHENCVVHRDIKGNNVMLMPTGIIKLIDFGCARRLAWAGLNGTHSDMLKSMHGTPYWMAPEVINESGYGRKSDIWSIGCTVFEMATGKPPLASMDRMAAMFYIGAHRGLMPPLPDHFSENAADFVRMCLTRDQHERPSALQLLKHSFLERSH

MAP4K3 (human) = MAP4K3 (human) (UniProt Q8IVH8)
STK32A (human) = STK32A (human) (UniProt Q8WU08)
TTK (human) = TTK (human) (UniProt P33981)
TTK (human), sequence (P33981 whole entry, looked up): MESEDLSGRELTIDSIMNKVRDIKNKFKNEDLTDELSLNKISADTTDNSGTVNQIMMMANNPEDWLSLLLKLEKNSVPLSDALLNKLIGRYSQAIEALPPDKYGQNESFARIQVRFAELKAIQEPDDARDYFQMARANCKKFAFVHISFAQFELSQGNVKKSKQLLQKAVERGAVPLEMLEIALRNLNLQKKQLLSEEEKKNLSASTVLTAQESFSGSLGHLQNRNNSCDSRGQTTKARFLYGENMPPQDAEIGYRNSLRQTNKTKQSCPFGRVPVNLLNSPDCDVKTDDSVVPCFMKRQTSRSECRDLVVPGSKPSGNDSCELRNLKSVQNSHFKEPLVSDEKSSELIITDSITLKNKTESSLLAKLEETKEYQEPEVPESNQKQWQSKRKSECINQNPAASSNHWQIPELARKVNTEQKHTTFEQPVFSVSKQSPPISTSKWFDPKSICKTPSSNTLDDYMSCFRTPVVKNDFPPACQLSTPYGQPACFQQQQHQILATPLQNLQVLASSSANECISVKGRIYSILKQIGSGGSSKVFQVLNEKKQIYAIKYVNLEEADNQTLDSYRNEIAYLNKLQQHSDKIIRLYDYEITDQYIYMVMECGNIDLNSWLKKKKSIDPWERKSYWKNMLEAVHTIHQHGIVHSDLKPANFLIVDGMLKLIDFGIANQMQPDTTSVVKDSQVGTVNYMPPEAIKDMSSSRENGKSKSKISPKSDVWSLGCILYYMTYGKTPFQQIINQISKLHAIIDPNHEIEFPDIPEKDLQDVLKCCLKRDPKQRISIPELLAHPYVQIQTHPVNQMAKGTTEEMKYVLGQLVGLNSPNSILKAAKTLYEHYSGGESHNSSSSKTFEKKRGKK

BTK (human) = BTK (human) (UniProt Q06187)
MYO3B (human) = MYO3B (human) (UniProt Q8WXR4)
GAK (human) = GAK (human) (UniProt O14976)
MAPK6 (human) = MAPK6 (human) (UniProt Q16659)
PRKCQ (human) = PRKCQ (human) (UniProt Q04759)
PRKCQ (human), sequence (Q04759 whole entry, looked up): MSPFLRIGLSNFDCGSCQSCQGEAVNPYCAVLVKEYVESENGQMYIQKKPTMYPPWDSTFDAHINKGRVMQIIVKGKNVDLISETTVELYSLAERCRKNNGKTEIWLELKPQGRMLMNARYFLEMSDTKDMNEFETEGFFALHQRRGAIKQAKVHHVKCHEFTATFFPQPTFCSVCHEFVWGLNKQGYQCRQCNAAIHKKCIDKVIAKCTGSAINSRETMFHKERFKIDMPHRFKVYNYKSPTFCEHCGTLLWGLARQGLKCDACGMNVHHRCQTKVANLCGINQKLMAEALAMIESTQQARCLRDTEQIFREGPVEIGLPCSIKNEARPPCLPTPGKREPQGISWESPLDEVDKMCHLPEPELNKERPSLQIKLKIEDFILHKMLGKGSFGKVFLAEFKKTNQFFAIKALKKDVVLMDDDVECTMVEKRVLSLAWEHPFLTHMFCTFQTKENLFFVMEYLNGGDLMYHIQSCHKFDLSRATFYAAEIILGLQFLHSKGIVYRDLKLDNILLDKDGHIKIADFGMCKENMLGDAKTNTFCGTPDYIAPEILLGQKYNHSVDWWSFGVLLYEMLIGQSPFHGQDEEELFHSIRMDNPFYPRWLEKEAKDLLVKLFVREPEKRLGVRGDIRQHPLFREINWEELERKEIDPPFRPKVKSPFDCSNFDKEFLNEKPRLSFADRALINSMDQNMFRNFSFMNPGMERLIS

CaMK1 (human), sequence (Q14012 whole entry, looked up): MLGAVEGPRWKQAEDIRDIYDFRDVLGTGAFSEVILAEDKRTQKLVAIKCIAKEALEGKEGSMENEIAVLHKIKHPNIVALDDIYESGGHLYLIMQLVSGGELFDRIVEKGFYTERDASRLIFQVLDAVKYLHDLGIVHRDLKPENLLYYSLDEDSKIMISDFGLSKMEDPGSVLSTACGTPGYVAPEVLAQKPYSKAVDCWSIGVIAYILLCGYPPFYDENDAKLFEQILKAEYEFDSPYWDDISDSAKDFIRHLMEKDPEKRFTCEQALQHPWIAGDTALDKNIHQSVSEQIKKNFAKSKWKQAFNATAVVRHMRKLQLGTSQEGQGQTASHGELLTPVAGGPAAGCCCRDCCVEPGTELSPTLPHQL

COc1cc(N2CCN(C)CC2)ccc1Nc1nc(N)c(C(=O)c2c(Cl)cccc2Cl)s1
kinase still bound, per cent of control [1]: 60% | kinase still bound, per cent of control (RPS6KA6 KD2 (human)): 28% | kinase still bound, per cent of control (FGFR4 (human)): 89% | kinase still bound, per cent of control (EIF2AK2 (human)): 75% | kinase still bound, per cent of control (ERN1 (human)): 99% | kinase still bound, per cent of control (CaMK1 (human)): 0.75% | kinase still bound, per cent of control (CDC42BPA (human)): 100% | kinase still bound, per cent of control (MAP2K4 (human)): 70% | kinase still bound, per cent of control (PLK1 (human)): 72% | kinase still bound, per cent of control (MYLK4 (human)): 100% | kinase still bound, per cent of control (ERBB2 (human)): 100% | kinase still bound, per cent of control (CAMK2B (human)): 20% | kinase still bound, per cent of control (PRKACB (human)): 100% | kinase still bound, per cent of control (PRKAA2 (human)): 68% | kinase still bound, per cent of control (NEK7 (human)): 100% | kinase still bound, per cent of control (TLK2 (human)): 93% | kinase still bound, per cent of control (CIT (human)): 94% | kinase still bound, per cent of control [2]: 100% | kinase still bound, per cent of control (RPS6KA4 KD1 (human)): 100% | kinase still bound, per cent of control (MAP2K6 (human)): 85% | kinase still bound, per cent of control (STK39 (human)): 66% | kinase still bound, per cent of control (ACVR1B (human)): 100% | kinase still bound, per cent of control (CAMK4 (human)): 99% | kinase still bound, per cent of control [3]: 78% | kinase still bound, per cent of control (DAPK1 (human)): 85% | kinase still bound, per cent of control (PKN2 (human)): 98% | kinase still bound, per cent of control (MST4 (human)): 100% | kinase still bound, per cent of control (ACVRL1 (human)): 84% | kinase still bound, per cent of control (CSNK1G3 (human)): 79% | kinase still bound, per cent of control (FGR (human)): 93% | kinase still bound, per cent of control (PLK2 (human)): 91% | kinase still bound, per cent of control (YSK4 (human)): 98% | kinase still bound, per cent of control (MAP4K3 (human)): 100% | kinase still bound, per cent of control (STK32A (human)): 88% | kinase still bound, per cent of control (TTK (human)): 20% | kinase still bound, per cent of control (BTK (human)): 100% | kinase still bound, per cent of control (MYO3B (human)): 94% | kinase still bound, per cent of control (GAK (human)): 73% | kinase still bound, per cent of control (MAPK6 (human)): 100% | kinase still bound, per cent of control (PRKCQ (human)): 54%

CCN1CCN(Cc2ccc(Nc3ncc4c(n3)N(C)c3ccccc3C(=O)N4C)cc2C(F)(F)F)CC1
kinase still bound, per cent of control [1]: 13% | kinase still bound, per cent of control (RPS6KA6 KD2 (human)): 16% | kinase still bound, per cent of control (FGFR4 (human)): 36% | kinase still bound, per cent of control (EIF2AK2 (human)): 95% | kinase still bound, per cent of control (ERN1 (human)): 96% | kinase still bound, per cent of control (CaMK1 (human)): 78% | kinase still bound, per cent of control (CDC42BPA (human)): 70% | kinase still bound, per cent of control (MAP2K4 (human)): 100% | kinase still bound, per cent of control (PLK1 (human)): 27% | kinase still bound, per cent of control (MYLK4 (human)): 99% | kinase still bound, per cent of control (ERBB2 (human)): 100% | kinase still bound, per cent of control (CAMK2B (human)): 58% | kinase still bound, per cent of control (PRKACB (human)): 100% | kinase still bound, per cent of control (PRKAA2 (human)): 5% | kinase still bound, per cent of control (NEK7 (human)): 88% | kinase still bound, per cent of control (TLK2 (human)): 89% | kinase still bound, per cent of control (CIT (human)): 99% | kinase still bound, per cent of control [2]: 62% | kinase still bound, per cent of control (RPS6KA4 KD1 (human)): 100% | kinase still bound, per cent of control (MAP2K6 (human)): 75% | kinase still bound, per cent of control (STK39 (human)): 100% | kinase still bound, per cent of control (ACVR1B (human)): 100% | kinase still bound, per cent of control (CAMK4 (human)): 100% | kinase still bound, per cent of control [3]: 3.2% | kinase still bound, per cent of control (DAPK1 (human)): 65% | kinase still bound, per cent of control (PKN2 (human)): 55% | kinase still bound, per cent of control (MST4 (human)): 5.6% | kinase still bound, per cent of control (ACVRL1 (human)): 100% | kinase still bound, per cent of control (CSNK1G3 (human)): 5.4% | kinase still bound, per cent of control (FGR (human)): 26% | kinase still bound, per cent of control (PLK2 (human)): 100% | kinase still bound, per cent of control (YSK4 (human)): 80% | kinase still bound, per cent of control (MAP4K3 (human)): 11% | kinase still bound, per cent of control (STK32A (human)): 81% | kinase still bound, per cent of control (TTK (human)): 77% | kinase still bound, per cent of control (BTK (human)): 67% | kinase still bound, per cent of control (MYO3B (human)): 100% | kinase still bound, per cent of control (GAK (human)): 12% | kinase still bound, per cent of control (MAPK6 (human)): 20% | kinase still bound, per cent of control (PRKCQ (human)): 100%

Cc1ccc(NC(=O)c2cccc(C(C)(C)C#N)c2)cc1Nc1ccc2ncn(C)c(=O)c2c1
kinase still bound, per cent of control [1]: 100% | kinase still bound, per cent of control (RPS6KA6 KD2 (human)): 3.5% | kinase still bound, per cent of control (FGFR4 (human)): 100% | kinase still bound, per cent of control (EIF2AK2 (human)): 75% | kinase still bound, per cent of control (ERN1 (human)): 86% | kinase still bound, per cent of control (CaMK1 (human)): 87% | kinase still bound, per cent of control (CDC42BPA (human)): 100% | kinase still bound, per cent of control (MAP2K4 (human)): 100% | kinase still bound, per cent of control (PLK1 (human)): 100% | kinase still bound, per cent of control (MYLK4 (human)): 100% | kinase still bound, per cent of control (ERBB2 (human)): 72% | kinase still bound, per cent of control (CAMK2B (human)): 100% | kinase still bound, per cent of control (PRKACB (human)): 100% | kinase still bound, per cent of control (PRKAA2 (human)): 100% | kinase still bound, per cent of control (NEK7 (human)): 96% | kinase still bound, per cent of control (TLK2 (human)): 100% | kinase still bound, per cent of control (CIT (human)): 0.05% | kinase still bound, per cent of control [2]: 22% | kinase still bound, per cent of control (RPS6KA4 KD1 (human)): 100% | kinase still bound, per cent of control (MAP2K6 (human)): 100% | kinase still bound, per cent of control (STK39 (human)): 100% | kinase still bound, per cent of control (ACVR1B (human)): 97% | kinase still bound, per cent of control (CAMK4 (human)): 100% | kinase still bound, per cent of control [3]: 88% | kinase still bound, per cent of control (DAPK1 (human)): 100% | kinase still bound, per cent of control (PKN2 (human)): 100% | kinase still bound, per cent of control (MST4 (human)): 100% | kinase still bound, per cent of control (ACVRL1 (human)): 100% | kinase still bound, per cent of control (CSNK1G3 (human)): 100% | kinase still bound, per cent of control (FGR (human)): 12% | kinase still bound, per cent of control (PLK2 (human)): 99% | kinase still bound, per cent of control (YSK4 (human)): 0.85% | kinase still bound, per cent of control (MAP4K3 (human)): 94% | kinase still bound, per cent of control (STK32A (human)): 100% | kinase still bound, per cent of control (TTK (human)): 95% | kinase still bound, per cent of control (BTK (human)): 66% | kinase still bound, per cent of control (MYO3B (human)): 100% | kinase still bound, per cent of control (GAK (human)): 99% | kinase still bound, per cent of control (MAPK6 (human)): 100% | kinase still bound, per cent of control (PRKCQ (human)): 98%
